According to patent US20020025974A1, “BICYCLE THIOPHENES AND THIAZOLES” (priority 1998, published 2002):
Structures can show the parent of a compound that is named as a salt. Where two headings read alike, the source gives them in different places.

How the values were obtained:
[1] = target: T1, Alpha-2D adrenergic receptor (Rattus norvegicus, UniProt P22909); assay: Alpha-2D adrenergic receptor binding assay (3H-para-aminoclonidine, rat cortex synaptic membranes); settings: ligand 3H-para-aminoclonidine, 25° C. 20 min
T1 construct: aliquots of the synaptic membrane fraction, the ligand ^3H-para-aminoclonidine and test drug; from tissue; host or cells: rat brain cortex synaptic membrane fraction (male Wistar rats)
T1 sequence (P22909 1-465): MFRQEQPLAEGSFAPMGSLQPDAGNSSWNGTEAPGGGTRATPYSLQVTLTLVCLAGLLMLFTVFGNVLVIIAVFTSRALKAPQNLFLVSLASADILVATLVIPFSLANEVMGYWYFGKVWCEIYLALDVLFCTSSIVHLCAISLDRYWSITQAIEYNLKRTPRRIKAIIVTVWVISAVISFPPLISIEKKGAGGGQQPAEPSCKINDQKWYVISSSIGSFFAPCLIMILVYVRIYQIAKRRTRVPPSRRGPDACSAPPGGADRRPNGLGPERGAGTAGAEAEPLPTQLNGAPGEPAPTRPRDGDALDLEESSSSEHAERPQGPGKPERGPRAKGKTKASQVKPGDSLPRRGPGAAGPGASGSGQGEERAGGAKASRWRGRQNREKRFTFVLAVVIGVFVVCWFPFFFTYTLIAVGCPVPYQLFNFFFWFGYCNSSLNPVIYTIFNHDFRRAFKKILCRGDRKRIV
Method: Alpha-2D adrenergic receptor binding assay
Male, Wistar rats (150-250 g, VAF, Charles River, Kingston, N.Y.) are sacrificed by cervical dislocation and their brains removed and placed immediately in ice cold HEPES buffered sucrose. The cortex is dissected out and homogenized in 20 volumes of HEPES sucrose in a Teflon™-glass homogenizer. The homogenate is centrifuged at 1000 g for 10 min, and the resulting supernatant centrifuged at 42,000 g for 10 min. The resulting pellet is resuspended in 30 volumes of 3 mM potassium phosphate buffer, pH 7.5, preincubated at 25° C. for 30 min and recentrifuged. The resulting pellet is resuspended as described above and used for the receptor binding assay. […] The incubation is terminated by filtration of the tube contents through glass fiber filter sheets. Following washing of the sheets with 10 mM HEPES buffer, the adhering radioactivity is quantified by liquid scintillation spectrometry.
Binding of the test drug to the receptor is determined by comparing the amount of radiolabeled ligand bound in control tubes without drug to the amount of radiolabeled ligand bound in the presence of the drug. Dose-response data are analyzed with LIGAND, a nonlinear curve fitting program designed specifically for the analysis of ligand binding data.

SMILES	Ki ([1]; α2D Ki)	other results
c1ccc2c(Cc3c[nH]cn3)csc2c1 [Cp-6]	0.09 nM	
c1nc(Cc2nc3c(s2)CCCC3)c[nH]1 (as salt: fumaric acid salt) [Cp-11]		melting point: 169 to 171 °C
c1ccc2sc(-c3c[nH]cn3)cc2c1 [Cp-9]		Ki ([1]; read-out: α2D Ki): 18 nM
c1ccc2sc(Cc3c[nH]cn3)cc2c1 [Cp-1]	1.1 nM	
CC(c1c[nH]cn1)c1cc2ccccc2s1 (centres unmarked) [Cp-3]	14 nM	
Brc1c(Cc2c[nH]cn2)sc2ccccc12 [Cp-4]	0.22 nM	
OC(c1c[nH]cn1)c1cc2ccccc2s1 (centres unmarked) [Cp-2]	74.9 nM	
c1nc(Cc2nc3c(s2)CCCC3)c[nH]1 [Cp-11]		Ki ([1]; read-out: α2D Ki): 110 nM
